Data reported in US10947196B2, “Beta adrenergic agonist and methods of using the same” (CURASEN THERAPEUTICS, INC., priority 2019, dated 2021).
Read-outs that look alike come from different tables or passages of the source.

Legend:
[1] = Plasma protein binding, equilibrium dialysis (human); type: in vitro ADME; conditions: pH 7.4, equilibrium dialysis 6 hours, read-out: PPB (human), percent of unbound fraction
[2] = molecular target: β2 adrenergic receptor (Homo sapiens (Human), UniProt P07550); test: cAMP Gs dynamic HTRF assay, β2 expressing CHO cells; type: cell-based
Summary of the method: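 Intracellular cAMP quantified by Eu-donor/d2-acceptor HTRF after 30 min compound exposure at 37° C in stimulation buffer with IBMX. Concentrations ran 10 μM top, 5-fold steps, 10 points. Cell lines: 1321N1 astrocytoma and CHO expressing β1 or β2; EC50 via four-parameter fit, relative efficacy against isoproterenol.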

[3] = Hepatocyte stability (human); type: in vitro ADME; conditions: 0.5×10^6 viable cells/mL
Procedure: 10 mM and 100 μM stock solutions of test compound(s) and a positive control were prepared in appropriate solvent (DMSO). In separate conical tubes, the 10 mM test compound and the positive control were diluted to 100 μM by combining 198 μL of 50% acetonitrile/50% water and 2 μL of 10 mM stock. The 100 μM test compound and the positive control were diluted to 30 μM by combining 140 μL of 50% acetonitrile/50% water and 60 μL of 100 μM stock solution. The 100 μM test compound and the positive control were diluted to 10 μM by combining 180 μL of 50% acetonitrile/50% water and 20 μL of 100 μM stock solution. The 100 μM test compound and the positive control were diluted to 3 μM by combining 194 μL of 50% acetonitrile/50% water and 6 μL of 100 μM stock solution.
Incubation medium (William's E Medium supplemented with GlutaMAX) and hepatocyte thawing medium was placed in a 37° C. water bath, and allowed to warm for at least 15 minutes prior to use. A vial of cryopreserved hepatocytes from storage was then removed, ensuring that the vial remains at cryogenic temperatures until thawing process ensues. Cells were thawed by placing the vial in a 37° C. water bath and gently shaking the vial for 2 minutes. After thawing was completed, the vial was sprayed with 70% ethanol and transferred to a biosafety cabinet.
A wide-bore pipette tip was used to transfer hepatocytes into 50 mL conical tube containing thawing medium. The 50 mL conical tube was placed into a centrifuge and spun at 100 g for 10 minutes. Upon completion of spin, the thawing medium was aspirated and the hepatocytes were resuspended in enough incubation medium to yield ˜1.5×10^6 cells/mL.
Using AOPI staining solution, cells were counted and the viable cell density was determined. Cells with poor viability (<75% viability) are not acceptable for use. […]
All calculations were carried out using Microsoft Excel. Peak areas were determined from extracted ion chromatograms. […]
The in vitro half-life (in vitro t1/2) was determined from the slope value: in vitro t1/2=0.693/k

[4] = B2-AR, CHO-K cells, read-out: Average EC50 [Receptor subtype: B2-AR, Cell type: CHO-K]

Chain of β2 adrenergic receptor (P07550 whole entry, species assumed): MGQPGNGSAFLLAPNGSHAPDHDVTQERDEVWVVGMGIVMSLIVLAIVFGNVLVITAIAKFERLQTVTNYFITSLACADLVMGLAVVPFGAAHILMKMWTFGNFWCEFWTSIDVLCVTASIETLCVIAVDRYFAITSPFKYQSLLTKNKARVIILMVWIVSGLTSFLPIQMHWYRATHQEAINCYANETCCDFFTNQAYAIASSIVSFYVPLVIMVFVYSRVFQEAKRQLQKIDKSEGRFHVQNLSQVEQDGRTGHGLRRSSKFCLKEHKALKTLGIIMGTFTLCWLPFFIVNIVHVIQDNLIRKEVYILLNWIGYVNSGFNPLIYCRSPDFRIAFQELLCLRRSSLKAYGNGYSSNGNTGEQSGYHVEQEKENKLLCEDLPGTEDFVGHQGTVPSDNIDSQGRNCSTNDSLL

Average pEC50 [Receptor subtype: B2-AR; Cell type: CHO-K1 (HitHunter)] ([2]; B2-AR, CHO-K1 (HitHunter))	SMILES	fraction unbound at 6 h, 1 μM [1]	EC50 ([2]; cAMP HTRF, read-out: β2 EC50) [nM]	Hepatocyte stability, Human [3]	EC50 [2, 4] [nM]	EC50 ([2]; B2-AR, CHO-K1 (HitHunter), read-out: Average pEC50 [Receptor subtype: B2-AR, Cell type: CHO-K1 (HitHunter)] (converted)) [nM]
–	CC(C)(C)NC[C@H](O)c1cccc(C(F)(F)F)n1 [Compound 03-3]	0.89	< 10	0.9 μL/min/10^6 cells	–	–
B-A	CC(C)(C)NC[C@H](O)c1cccc(C#N)n1 [Compound 03-5, (S)-6-(2-(tert-butylamino)-1-hydroxyethyl)picolinonitrile]	1	–	0.36-0.59 μL/min/10^6 cells	< 10	–
–	Cc1ncccc1[C@@H](O)CNC(C)(C)C [Compound 03-115]	1	–	0.32 μL/min/10^6 cells	10 to 100	10 to 100
